Article PMC3227451, “Structure-based development of novel sirtuin inhibitors” (Aging (Albany NY), 2011)

Experiments:
HEK cells = assay: Cytotoxicity testing on HEK cells
Sirt5 = biological target: T1, Sirt5 (Homo sapiens, UniProt Q9NXA8); assay: Fluor-de-Lys peptide deacetylation assay, Sirt5; format: biochemical
T1 construct: Sirt5 residues 34-302; His-tag with linker comprising a TEV protease cleavage site (N); made in house
T1 sequence (Q9NXA8 34-302): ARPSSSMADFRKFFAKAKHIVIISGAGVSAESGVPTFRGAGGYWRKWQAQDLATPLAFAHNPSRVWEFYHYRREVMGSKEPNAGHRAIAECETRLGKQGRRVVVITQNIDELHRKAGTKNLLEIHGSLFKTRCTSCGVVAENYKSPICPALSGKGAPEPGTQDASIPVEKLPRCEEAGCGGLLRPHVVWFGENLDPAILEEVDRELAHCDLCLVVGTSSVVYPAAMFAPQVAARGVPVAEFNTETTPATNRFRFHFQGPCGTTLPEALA
Summary of the method: (§1)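 E. coli-expressed human Sirtuins with 0.5 mM NAD+ and 0.1 mM Fluor-de-Lys peptide: FdL-2 (QPK(acetyl-K)) for Sirt3, FdL-1 (RHK(acetyl-K)) for Sirt5. Compounds at 100 μM final; 30 min at 37 °C, then trypsin developer for 45 min at room temperature.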

Sirt3 = biological target: T2, Sirt3 (Homo sapiens, UniProt Q9NTG7); assay: Fluor-de-Lys peptide deacetylation assay, Sirt3; format: biochemical
T2 construct: Sirt3 residues 114-399; His-tag with linker comprising a TEV protease cleavage site (N); made in house; host or cells: E. coli
T2 sequence (Q9NTG7 114-399): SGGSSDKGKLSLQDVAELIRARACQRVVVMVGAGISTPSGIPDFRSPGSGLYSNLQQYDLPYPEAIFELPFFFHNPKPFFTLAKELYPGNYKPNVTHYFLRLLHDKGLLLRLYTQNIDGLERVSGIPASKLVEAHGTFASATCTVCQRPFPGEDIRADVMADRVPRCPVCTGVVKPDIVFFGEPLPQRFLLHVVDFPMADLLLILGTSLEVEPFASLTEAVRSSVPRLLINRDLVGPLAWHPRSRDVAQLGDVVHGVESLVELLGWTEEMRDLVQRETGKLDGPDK
Summary of the method: as §1

Sirt1 = biological target: T3, Sirt1 (Homo sapiens, UniProt Q96EB6); assay: in vitro activity of Sirt1; format: biochemical; conditions: concentration of 100 μM
T3 sequence (Q96EB6 1-747): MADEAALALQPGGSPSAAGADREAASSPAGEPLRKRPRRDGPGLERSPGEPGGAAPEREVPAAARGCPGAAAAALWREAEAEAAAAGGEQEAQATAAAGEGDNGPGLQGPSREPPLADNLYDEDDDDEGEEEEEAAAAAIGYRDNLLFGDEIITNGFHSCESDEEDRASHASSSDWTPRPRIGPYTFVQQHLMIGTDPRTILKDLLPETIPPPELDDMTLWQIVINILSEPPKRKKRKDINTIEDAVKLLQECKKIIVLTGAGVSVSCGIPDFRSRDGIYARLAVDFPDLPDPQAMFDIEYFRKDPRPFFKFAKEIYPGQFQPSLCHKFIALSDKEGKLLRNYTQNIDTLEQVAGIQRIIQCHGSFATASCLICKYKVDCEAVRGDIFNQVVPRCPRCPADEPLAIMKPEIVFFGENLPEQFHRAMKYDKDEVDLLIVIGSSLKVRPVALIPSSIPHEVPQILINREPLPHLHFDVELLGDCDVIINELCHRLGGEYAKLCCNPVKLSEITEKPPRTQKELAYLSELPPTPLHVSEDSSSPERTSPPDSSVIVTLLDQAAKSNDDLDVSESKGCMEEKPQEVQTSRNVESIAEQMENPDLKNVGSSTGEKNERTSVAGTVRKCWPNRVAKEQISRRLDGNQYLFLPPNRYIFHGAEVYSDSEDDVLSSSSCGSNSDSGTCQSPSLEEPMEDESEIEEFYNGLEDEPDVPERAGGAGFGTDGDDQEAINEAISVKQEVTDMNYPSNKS

## CC12Cc3cnc(-c4ccccc4)nc3CC1CCC1C2CCC2(C)C1CCC2(C)O (stereo not shown) [CSC13, 1,11a,13a-trimethyl-8-phenyl-2,3,3a,3b,4,5,5a,6,11,11a,11b,12,13,13a-tetradecahydro-1H-cyclopenta[5,6]naphtho[1,2-g]quinazolin-1-ol]
HEK cells
  cytotoxicity: smaller effect
Sirt5
  Effect on the activity of Sirt5: --- (key: inhibition: significant inhibitory effects (>25% loss of activity); ---: no such effect)
Sirt3
  Effect on the activity of Sirt3: --- (key: inhibition: significant inhibitory effects (>25% loss of activity); ---: no such effect)
Sirt1
  effect on the in vitro activity of Sirt1: only a weak inhibitory effect
